# Laboratory results published in PubChem BioAssay (NCI).
#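 Following 48 hours of exposure in 96-well plates, responses at five concentrations were used to interpolate endpoints linearly. TGI: concentration producing complete growth inhibition.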
# Legend:
# Test in all cases: NCI-60 cell line screen, 48 h
# [1] = test system: DU-145 prostate
# [2] = test system: EKVX NSCLC
# [3] = test system: HCC-2998 colon
# [4] = test system: MDA-N
# [5] = test system: OVCAR-3 ovarian
# [6] = test system: SF-295 CNS
# [7] = test system: SK-MEL-5 melanoma
# [8] = test system: SNB-75 CNS
# [9] = test system: T-47D breast
# [10] = test system: TK-10 renal
Structure (SMILES),TGI [1],TGI [2],TGI [3],TGI [4],TGI [5],TGI [6],TGI [7],TGI [8],TGI [9],TGI [10]
OC1C[C@H](c2ccccc2)C2(C(O)c3ccccc3C2O)[C@@H](c2ccccc2)C1 (stereo partly drawn),> 100 µM,> 100 µM,> 100 µM,> 100 µM,> 100 µM,> 100 µM,> 100 µM,> 100 µM,> 100 µM,> 100 µM
C=CCC(C(=O)Nc1cccc2[nH]cnc12)C(=O)OCC (stereo not drawn),> 100 µM,> 100 µM,> 100 µM,> 100 µM,> 100 µM,> 100 µM,,> 100 µM,> 100 µM,> 100 µM
CCOc1ccc2c(c1)c(=O)c1c(NCCN(CC)CC)ccc3nnn2c31,54.4 µM,> 100 µM,> 50.4 µM,35.7 µM,> 100 µM,> 56.4 µM,31.1 µM,,> 100 µM,37.9 µM
COc1ccc(N2C(=O)C3c4[nH]c5ccccc5c4C4CCCCC4C3C2=O)cc1 (stereo not drawn),,37.7 µM,40.7 µM,,> 100 µM,36 µM,66 µM,17.5 µM,,58.8 µM
NC(N)=NCCCC(NC(=O)OCCCCn1ccc(N)nc1=O)C(=O)O (stereo not drawn),> 100 µM,> 100 µM,> 100 µM,> 100 µM,> 100 µM,> 100 µM,,> 100 µM,> 100 µM,> 100 µM
Cc1ccc(-n2cc([Si](C)(C)C)nn2)s1,> 100 µM,,> 100 µM,> 100 µM,> 100 µM,> 100 µM,> 100 µM,,> 100 µM,> 100 µM
Cn1c(O)c(C=Nc2ccccc2Cl)c(=O)n(C)c1=O,,> 100 µM,34.2 µM,> 100 µM,49.5 µM,80.5 µM,> 100 µM,> 100 µM,65.5 µM,> 100 µM
O=C1NCCS(=O)(=O)N2CCC[C@@H]12,,> 100 µM,> 100 µM,,> 100 µM,> 100 µM,> 100 µM,> 100 µM,,> 100 µM
O=C1c2ccccc2C(=O)c2[nH]c(Cc3ccc(F)cc3)nc21,,39.8 µM,42.8 µM,,38.2 µM,31.2 µM,,38.3 µM,,53.1 µM
CC1=NN(c2nc(N)nc(CF)n2)C(C)(C)C1,> 100 µM,> 100 µM,> 100 µM,,,> 100 µM,> 100 µM,> 100 µM,> 100 µM,> 100 µM
COc1ccc(C2=NN=C3C(c4ccccc4)=Nc4ccccc4N3C2)cc1,70.7 µM,> 100 µM,> 100 µM,> 100 µM,6.52 µM,,> 100 µM,,,> 100 µM
CCCC(=O)[O-].N.N.N.N.N.[Co+3].[O-][Cl+3]([O-])([O-])[O-],,> 100 µM,> 100 µM,,> 100 µM,> 100 µM,> 100 µM,> 100 µM,,> 100 µM
CC1(C)N=C(c2ccccn2)C(c2ccccn2)=NC1(C)C,,> 100 µM,> 100 µM,,> 100 µM,> 100 µM,> 100 µM,,,
COc1ccc(Sc2ccccc2N)cc1,,> 100 µM,> 100 µM,,> 100 µM,> 100 µM,62.9 µM,62.2 µM,,> 100 µM
CC(C)(C)OC(=O)NCC(=O)N1CCN(C(=O)CNC(=O)OC(C)(C)C)CC1,> 100 µM,> 100 µM,> 100 µM,> 100 µM,> 100 µM,> 100 µM,> 100 µM,,> 100 µM,> 100 µM
CCOC(=O)N1CCC(=C2c3ccc(Cl)cc3CCc3cccnc32)CC1,26.9 µM,28.1 µM,23.6 µM,16.8 µM,22.5 µM,,9.22 µM,,35 µM,29.3 µM
S=c1[nH]c2ccc(I)cc2c(=S)n1Cc1ccccc1,11.9 µM,23.7 µM,,56.9 µM,8.07 µM,11.5 µM,13.2 µM,13.7 µM,5.5 µM,30.8 µM
CCC[C@@H]1C(=O)N=C(N)N1C(=O)OCc1ccccc1,> 100 µM,> 100 µM,> 100 µM,> 100 µM,> 100 µM,> 100 µM,> 100 µM,> 100 µM,,> 100 µM
Cc1cc(S(=O)(=O)/N=C(/NN)NNc2cccc(C(F)(F)F)n2)c(S)cc1Cl,34.1 µM,63.8 µM,31.2 µM,29.2 µM,62.7 µM,,37.9 µM,32 µM,40.7 µM,51.8 µM
C[N+](C)(CCNC(=O)c1cccc2cc3ccccc3nc12)Cc1ccc([N+](=O)[O-])s1,> 25 µM,> 25 µM,,> 25 µM,> 25 µM,> 25 µM,> 25 µM,> 25 µM,> 25 µM,> 25 µM
CCOC(=O)C(NC(=O)OC(C)(C)C)C(=O)OCC,> 100 µM,> 100 µM,> 100 µM,,,,> 100 µM,> 100 µM,> 100 µM,> 100 µM
CN1C/C(=C\C=C\c2ccccc2)C(=O)/C(=C/C=C/c2ccccc2)C1,,> 100 µM,> 100 µM,,> 100 µM,> 100 µM,> 100 µM,> 100 µM,,> 100 µM
CC(=O)Nc1ccccc1NC1CC(C)N(c2ccccc2)N1C(C)=O (stereo not drawn),> 10 µM,> 10 µM,> 10 µM,> 10 µM,,> 10 µM,> 10 µM,> 10 µM,> 10 µM,> 10 µM
NC(CSSCC(N)Cc1ccccc1)Cc1ccccc1 (stereo not drawn),,> 100 µM,> 100 µM,,> 100 µM,> 100 µM,50.4 µM,,,> 100 µM
Oc1ccc(Cl)cc1C1=NC(/N=C\c2ccccc2)=NC(c2ccccc2)C1 (stereo not drawn),> 100 µM,> 100 µM,,,> 100 µM,> 100 µM,61.2 µM,64.7 µM,> 100 µM,> 100 µM
